Patent US20220089575A1, “FARNESOID X RECEPTOR AGONISTS AND USES THEREOF” (Metacrine, Inc., priority 2017, published 2022)

Each molecule was assayed against T1, hFXR (Homo sapiens, UniProt Q96RI1) (assay: In Vitro FXR Assay (TK): TK-ECRE-luc reporter in transfected CV-1 cells). Settings: 18 hrs, luminescence, maximum efficacy of <25% of the Fexarmine control classified as '+'.
T1 construct: expressed in transfected cells; host or cells: CV-1 cells
T1 sequence (Q96RI1 1-486): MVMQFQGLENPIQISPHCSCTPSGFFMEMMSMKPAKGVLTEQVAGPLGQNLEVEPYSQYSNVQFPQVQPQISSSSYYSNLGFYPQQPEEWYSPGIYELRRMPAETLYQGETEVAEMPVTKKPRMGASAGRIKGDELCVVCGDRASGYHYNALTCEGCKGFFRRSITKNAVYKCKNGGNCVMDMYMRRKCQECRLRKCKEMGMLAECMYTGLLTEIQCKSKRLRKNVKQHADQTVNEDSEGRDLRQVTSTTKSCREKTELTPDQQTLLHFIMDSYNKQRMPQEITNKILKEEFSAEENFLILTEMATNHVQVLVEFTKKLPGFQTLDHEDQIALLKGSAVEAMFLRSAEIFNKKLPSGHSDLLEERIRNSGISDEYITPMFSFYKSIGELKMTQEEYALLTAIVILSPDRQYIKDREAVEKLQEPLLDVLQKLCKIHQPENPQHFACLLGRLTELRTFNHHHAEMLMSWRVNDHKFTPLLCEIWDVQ
T1 sequence (P19793 1-462 partner): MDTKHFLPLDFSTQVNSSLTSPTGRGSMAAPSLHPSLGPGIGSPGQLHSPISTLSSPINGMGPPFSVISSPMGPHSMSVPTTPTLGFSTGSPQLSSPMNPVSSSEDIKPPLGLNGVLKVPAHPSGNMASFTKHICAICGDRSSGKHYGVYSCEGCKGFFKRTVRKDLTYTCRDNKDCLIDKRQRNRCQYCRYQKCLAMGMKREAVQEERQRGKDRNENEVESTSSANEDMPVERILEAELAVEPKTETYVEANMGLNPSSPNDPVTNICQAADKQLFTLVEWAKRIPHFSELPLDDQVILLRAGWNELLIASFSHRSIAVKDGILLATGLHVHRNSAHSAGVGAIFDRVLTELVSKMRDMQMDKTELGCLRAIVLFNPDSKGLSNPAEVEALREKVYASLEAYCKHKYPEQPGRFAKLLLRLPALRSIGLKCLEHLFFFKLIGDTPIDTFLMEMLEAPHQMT
Type: cell-based
In short: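 Transiently transfected monkey CV-1 cells (hFXR, hRXR, TK-ECRE-luciferase, YFP control plasmid), held in stripped-serum DMEM, received compound dilutions from DMSO for 18 h at 37 °C. Activity was taken from luminescence of the cell lysates.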

EC50, ≤ 250 nM:
CCCCC(=O)N[C@H]1CC[C@H](C(=O)N(C[C@H]2CC[C@H](c3ccc(OC)c(C)c3)CC2)c2cccc(-c3cnc(C4CC4)s3)c2)CC1 [Compound 25.17, trans-N-(3-(2-Cyclopropylthiazol-5-yl)phenyl)-N-((trans-4-(4-methoxy-3-methylphenyl)cyclohexyl)methyl)-4-pentanamidocyclohexanecarboxamide]
COc1ccc([C@H]2CC[C@H](CN(c3cccc(-c4cnc(C5CC5)s4)c3)C(=O)[C@H]3CC[C@H](NC(=O)CC(C)C)CC3)CC2)cc1C [Compound 25.18, trans-N-(3-(2-Cyclopropylthiazol-5-yl)phenyl)-N-((trans-4-(4-methoxy-3-methylphenyl)cyclohexyl)methyl)-4-(3-methylbutanamido) cyclohexanecarboxamide]
COC(=O)N[C@H]1CC[C@H](C(=O)N(C[C@H]2CC[C@H](c3ccc(OC)c(C)c3)CC2)c2cccc(-c3cnn(C4CC4)c3)c2)CC1 [Compound 26, Methyl (trans-4-((3-(1-cyclopropyl-1H-pyrazol-4-yl)phenyl)((trans-4-(4-methoxy-3-methylphenyl)cyclohexyl)methyl)carbamoyl)cyclohexyl)carbamate]
COc1ccc([C@H]2CC[C@H](CN(c3cccc(-c4cnn(C5CC5)c4)c3)C(=O)[C@H]3CC[C@H](NC(C)=O)CC3)CC2)cc1C [Compound 26.01, trans-4-Acetamido-N-(3-(1-cyclopropyl-1H-pyrazol-4-yl)phenyl)-N-((trans-4-(4-methoxy-3-methylphenyl)cyclohexyl)methyl)cyclohexanecarboxamide]
COc1ccc([C@H]2CC[C@H](CN(c3cccc(-c4cnn(C5CC5)c4)c3)C(=O)[C@H]3CC[C@H](NS(C)(=O)=O)CC3)CC2)cc1C [Compound 26.02, trans-N-(3-(1-Cyclopropyl-1H-pyrazol-4-yl)phenyl)-N-((trans-4-(4-methoxy-3-methylphenyl)cyclohexyl)methyl)-4-(methylsulfonamido) cyclohexanecarboxamide]
COc1ccc([C@H]2CC[C@H](CN(c3cccc(-c4cnn(C5CC5)c4)c3)C(=O)[C@H]3CC[C@H](NC(=O)CO)CC3)CC2)cc1C [Compound 26.03, trans-N-(3-(1-Cyclopropyl-1H-pyrazol-4-yl)phenyl)-4-(2-hydroxyacetamido)-N-((trans-4-(4-methoxy-3-methylphenyl)cyclohexyl)methyl) cyclohexanecarboxamide]
CNC(=O)OCC(=O)N[C@H]1CC[C@H](C(=O)N(C[C@H]2CC[C@H](c3ccc(OC)c(C)c3)CC2)c2cccc(-c3cnn(C4CC4)c3)c2)CC1 [Compound 26.04, 2-((trans-4-((3-(1-Cyclopropyl-1H-pyrazol-4-yl)phenyl)((trans-4-(4-methoxy-3-methylphenyl)cyclohexyl)methyl)carbamoyl)cyclohexyl)amino)-2-oxoethyl methylcarbamate]
COc1ccc([C@H]2CC[C@H](CN(c3cccc(-c4cnn(C5CC5)c4)c3)C(=O)[C@H]3CC[C@H](NC(=O)OCCO)CC3)CC2)cc1C [Compound 26.05, 2-Hydroxyethyl (trans-4-((3-(1-cyclopropyl-1H-pyrazol-4-yl)phenyl)((trans-4-(4-methoxy-3-methylphenyl)cyclohexyl)methyl)carbamoyl)cyclohexyl)carbamate]
COc1ccc([C@H]2CC[C@H](CN(c3cccc(-c4cnn(C5CC5)c4)c3)C(=O)[C@H]3CC[C@H](NC(=O)[C@H]4CC[C@H](O)CC4)CC3)CC2)cc1C [Compound 26.06, trans-N-(3-(1-Cyclopropyl-1H-pyrazol-4-yl)phenyl)-4-(trans-4-hydroxycyclohexanecarboxamido)-N-((trans-4-(4-methoxy-3-methylphenyl)cyclohexyl)methyl) cyclohexanecarboxamide]
COc1ccc(C23CCC(CN(c4cccc(-c5cnn(C6CC6)c5)c4)C(=O)[C@H]4CC[C@H](NC(C)=O)CC4)(CC2)CC3)cc1C [Compound 26.07, trans-4-Acetamido-N-(3-(1-cyclopropyl-1H-pyrazol-4-yl)phenyl)-N-((4-(4-methoxy-3-methylphenyl)bicyclo[2.2.2]octan-1-yl)methyl)cyclohexanecarboxamide]
COc1ccc(C23CCC(CN(c4cccc(-c5cnn(C6CC6)c5)c4)C(=O)[C@H]4CC[C@H](NC(=O)COC(C)=O)CC4)(CC2)CC3)cc1C [Compound 26.08, 2-((4-((3-(1-Cyclopropyl-1H-pyrazol-4-yl)phenyl)((4-(4-methoxy-3-methylphenyl)bicyclo[2.2.2]octan-1-yl)methyl)carbamoyl)cyclohexyl)amino)-2-oxoethyl trans-acetate]
COc1ccc(C23CCC(CN(c4cccc(-c5cnn(C6CC6)c5)c4)C(=O)[C@H]4CC[C@H](NC(=O)CO)CC4)(CC2)CC3)cc1C [Compound 26.09, trans-N-(3-(1-Cyclopropyl-1H-pyrazol-4-yl)phenyl)-4-(2-hydroxyacetamido)-N-((4-(4-methoxy-3-methylphenyl)bicyclo[2.2.2]octan-1-yl)methyl)cyclohexanecarboxamide]
COc1ccc([C@H]2CC[C@H](CN(c3cccc(-c4cnn(C(C)C)c4)c3)C(=O)[C@H]3CC[C@H](NC(C)=O)CC3)CC2)cc1C [Compound 26.10, trans-4-Acetamido-N-(3-(1-isopropyl-1H-pyrazol-4-yl)phenyl)-N-((trans-4-(4-methoxy-3-methylphenyl)cyclohexyl)methyl) cyclohexanecarboxamide]
COc1ccc([C@H]2CC[C@H](CN(c3cccc(-c4cnn(C(C)C)c4)c3)C(=O)[C@H]3CC[C@H](NC(=O)COC(C)=O)CC3)CC2)cc1C [Compound 26.11, 2-((trans-4-((3-(1-Isopropyl-1H-pyrazol-4-yl)phenyl)((trans-4-(4-methoxy-3-methylphenyl)cyclohexyl)methyl)carbamoyl)cyclohexyl)amino)-2-oxoethyl acetate]
COc1ccc([C@H]2CC[C@H](CN(c3cccc(-c4cnn(C(C)C)c4)c3)C(=O)[C@H]3CC[C@H](NC(=O)CO)CC3)CC2)cc1C [Compound 26.12, trans-4-(2-Hydroxyacetamido)-N-(3-(1-isopropyl-1H-pyrazol-4-yl)phenyl)-N-((trans-4-(4-methoxy-3-methylphenyl)cyclohexyl)methyl) cyclohexanecarboxamide]
COc1ccc([C@H]2CC[C@H](CN(c3cccc(-c4cnn(C5CC5)c4)c3)C(=O)[C@H]3CC[C@H](CNC(C)=O)CC3)CC2)cc1C [Compound 26.13, trans-4-(Acetamidomethyl)-N-(3-(1-cyclopropyl-1H-pyrazol-4-yl)phenyl)-N-((trans-4-(4-methoxy-3-methylphenyl)cyclohexyl)methyl) cyclohexanecarboxamide]
COC(=O)NC[C@H]1CC[C@H](C(=O)N(C[C@H]2CC[C@H](c3ccc(OC)c(C)c3)CC2)c2cccc(-c3cnn(C4CC4)c3)c2)CC1 [Compound 26.14, Methyl ((trans-4-((3-(1-cyclopropyl-1H-pyrazol-4-yl)phenyl)((trans-4-(4-methoxy-3-methylphenyl)cyclohexyl)methyl)carbamoyl)cyclohexyl)methyl)carbamate]
COc1ccc([C@H]2CC[C@H](CN(c3cccc(-c4cnn(C5CC5)c4)c3)C(=O)[C@H]3CC[C@H](CNS(C)(=O)=O)CC3)CC2)cc1C [Compound 26.15, trans-N-(3-(1-Cyclopropyl-1H-pyrazol-4-yl)phenyl)-N-((trans-4-(4-methoxy-3-methylphenyl)cyclohexyl)methyl)-4-(methylsulfonamidomethyl) cyclohexanecarboxamide]
COc1ccc([C@H]2CC[C@H](CN(c3cccc(-c4coc(C5CC5)n4)c3)C(=O)[C@H]3CC[C@H](NC(=O)CO)CC3)CC2)cc1C [Compound 26.16, trans-N-(3-(2-Cyclopropyloxazol-4-yl)phenyl)-4-(2-hydroxyacetamido)-N-((trans-4-(4-methoxy-3-methylphenyl)cyclohexyl)methyl) cyclohexanecarboxamide]
